The text below walks through data of patent EP0019589A1, “Tripeptide derivatives and their use in a process for determining enzymes” (Pentapharm A.G., priority 1979, dated 1980).

Non-standard residues stand in square brackets, D forms with d. Residues, ends and D or L forms follow the SMILES beside them. *: point of attachment. Cha = N[C@@H](CC1CCCCC1)C(=O)O; dCha = N[C@H](CC1CCCCC1)C(=O)O; dChg = N[C@@H](C(=O)O)C1CCCCC1; dPhg = N[C@@H](C(=O)O)c1ccccc1; pNA = O=[N+]([O-])c1ccc(N*)cc1; Phg = N[C@H](C(=O)O)c1ccccc1; dNva = CCC[C@@H](N)C(=O)O; dAbu = CC[C@@H](N)C(=O)O

Holding throughout (format): biochemical
One assay has as its target T1, Urinkallikrein (Homo sapiens, UniProt P06870).
T1 construct: 1 ml Urin und 1 ml TRIS-Imidazol-Puffer mit pH 7,9; from tissue; host or cells: human urine
The experiment in a line: Cleavage of chromogenic substrate by urinary kallikrein in human urine. To be noted: 1 ml human urine (pooled morning urine of healthy persons), per min; Substratkonzentration 2 x 10^-4 molar.

Assay [1] concerns the target T2, Submandibularis-Kallikrein (Homo sapiens, UniProt P06870).
T2 construct: Man mischt 0,5 ml Sputum mit 2 ml TRIS-Imidazol-Puffer; from tissue; host or cells: human sputum
Put plainly: Cleavage of chromogenic substrate by submandibular (glandular) kallikrein in human sputum. To be noted: 1 ml human sputum, per min; Substratkonzentration 2 x 10^-4 molar. The method, boiled down: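 Sputum mixed with TRIS-imidazole buffer (ionic strength 1.0), preincubated 5 min at 37°C and centrifuged; supernatant incubated with aqueous substrate solution (2 x 10^-3 M, stock). p-Nitroaniline release followed continuously at 405 nm for 5-10 min; activity expressed as mU per ml sputum from ΔOD/min.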

The target of the next assay is T3, Humanthrombin (Homo sapiens, UniProt P00734).
T3 construct: Humanplasmin und hu-manem NIH-Thrombin
The experiment in a line: Cleavage of chromogenic substrate by human NIH thrombin. To be noted: 1 NIH-Einheit human thrombin, per min; Substratkonzentration 2 x 10^-4 molar. The method, boiled down: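 Thrombin hydrolysis of chromogenic p-nitroanilide substrate read spectrophotometrically at 405 nm; fluorogenic naphthylamine, methylcoumarylamine or di(methoxycarbonyl)phenylamine substrates read continuously by fluorescence emission at 400-470 nm. Activity taken as product formed per unit time; 1 µmol product/min defined as 1 enzyme unit for a given substrate.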

The target of a further assay is T4, Humanplasmin (Homo sapiens, UniProt P00747).
T4 construct: da bei der Aktivierung aus 1 Molekül Plasminogen 1 Molekül Plasmin entsteht
Put plainly: Cleavage of chromogenic substrate by human plasmin. Conditions: 1 CU-Einheit human plasmin, per min; Substratkonzentration 2 x 10^-4 molar.

T2 sequence (P06870 25-262): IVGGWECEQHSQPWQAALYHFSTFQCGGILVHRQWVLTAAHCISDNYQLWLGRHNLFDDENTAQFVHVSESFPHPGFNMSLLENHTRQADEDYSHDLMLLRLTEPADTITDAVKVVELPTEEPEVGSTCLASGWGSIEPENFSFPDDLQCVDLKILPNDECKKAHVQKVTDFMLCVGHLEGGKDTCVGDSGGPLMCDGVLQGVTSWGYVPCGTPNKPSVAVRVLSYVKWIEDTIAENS
T1 sequence (P06870 25-262): as above
T4 sequence (P00747 581-810 limits assumed): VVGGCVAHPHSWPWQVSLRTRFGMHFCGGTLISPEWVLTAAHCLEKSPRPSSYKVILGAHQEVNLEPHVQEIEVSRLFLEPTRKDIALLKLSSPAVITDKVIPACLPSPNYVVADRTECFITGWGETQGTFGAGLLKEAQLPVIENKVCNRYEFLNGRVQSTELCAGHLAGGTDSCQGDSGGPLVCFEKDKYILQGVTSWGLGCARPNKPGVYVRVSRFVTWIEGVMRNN
T4 sequence (P00747 97-580 partner limits assumed): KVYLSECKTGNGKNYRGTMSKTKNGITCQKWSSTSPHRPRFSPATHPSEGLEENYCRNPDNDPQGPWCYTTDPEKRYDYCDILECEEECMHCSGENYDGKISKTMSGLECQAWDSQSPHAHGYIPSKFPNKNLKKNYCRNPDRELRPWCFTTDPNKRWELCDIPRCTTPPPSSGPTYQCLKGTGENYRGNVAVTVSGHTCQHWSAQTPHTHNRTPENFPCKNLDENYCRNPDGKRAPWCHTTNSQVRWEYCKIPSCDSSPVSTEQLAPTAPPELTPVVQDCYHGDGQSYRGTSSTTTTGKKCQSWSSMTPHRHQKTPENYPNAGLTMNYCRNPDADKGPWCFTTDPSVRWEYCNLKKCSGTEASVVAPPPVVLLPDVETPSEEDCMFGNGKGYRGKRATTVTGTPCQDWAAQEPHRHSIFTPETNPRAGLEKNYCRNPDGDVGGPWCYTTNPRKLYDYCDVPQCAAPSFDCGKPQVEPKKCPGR

With `N=C(N)NCCC[C@H](NC(=O)[C@H](CC1CCCCC1)NC(=O)[C@H](N)Cc1ccccc1)C(=O)Nc1ccc([N+](=O)[O-])cc1` [Beispiel 39, 2HBr.H-D-Phe-CHA-Arg-pNA] (H-[dF]-[Cha]-Arg-pNA), the “Menge des durch 1 ml Humanurin pro Min. freigesetzten Spaltproduktes R-NH2 in Nanomol (Urinkallikrein)” value on Urinkallikrein is on record as 2,14 Nanomol. In assay [1], the “Menge des durch 1 ml Humansputum pro Min. freigesetzten Spaltproduktes R-NH2 in Nanomol (Submandibularis-Kallikrein)” value is 28,5 Nanomol. Further, the “Menge des durch 1 NIH-Einheit Thrombin pro Min. freigesetzten Spaltproduktes R-NH2 in Nanomol (Humanthrombin)” value on Humanthrombin was 3,9 Nanomol. The “Menge des durch 1 CU-Einheit Humanplasmin pro Min. freigesetzten Spaltproduktes R-NH2 in Nanomol (Humanplasmin)” value at Humanplasmin stood at 814 Nanomol.
In the case of `C[C@@H](N)C(=O)N[C@@H](CC1CCCCC1)C(=O)N[C@@H](CCCNC(=N)N)C(=O)Nc1ccc([N+](=O)[O-])cc1` [Beispiel 40, 2HBr.H-D-Ala-CHA-Arg-pNA] (H-[dA]-[Cha]-Arg-pNA), the “Menge des durch 1 ml Humanurin pro Min. freigesetzten Spaltproduktes R-NH2 in Nanomol (Urinkallikrein)” value at Urinkallikrein was 1,73 Nanomol. The “Menge des durch 1 ml Humansputum pro Min. freigesetzten Spaltproduktes R-NH2 in Nanomol (Submandibularis-Kallikrein)” value in assay [1] is listed as 22,4 Nanomol. Also, the “Menge des durch 1 NIH-Einheit Thrombin pro Min. freigesetzten Spaltproduktes R-NH2 in Nanomol (Humanthrombin)” value on Humanthrombin was 1,5 Nanomol. The “Menge des durch 1 CU-Einheit Humanplasmin pro Min. freigesetzten Spaltproduktes R-NH2 in Nanomol (Humanplasmin)” value on Humanplasmin turned out to be 433 Nanomol.
Regarding `CC[C@@H](N)C(=O)N[C@@H](CC1CCCCC1)C(=O)N[C@@H](CCCNC(=N)N)C(=O)Nc1ccc([N+](=O)[O-])cc1` [Beispiel 41, 2HBr.H-D-But-CHA-Arg-pNA] (H-[dAbu]-[Cha]-Arg-pNA), on Urinkallikrein, the “Menge des durch 1 ml Humanurin pro Min. freigesetzten Spaltproduktes R-NH2 in Nanomol (Urinkallikrein)” value is on record as 2,99 Nanomol. Moreover, the “Menge des durch 1 ml Humansputum pro Min. freigesetzten Spaltproduktes R-NH2 in Nanomol (Submandibularis-Kallikrein)” value in assay [1] is 31,2 Nanomol. Further, the “Menge des durch 1 NIH-Einheit Thrombin pro Min. freigesetzten Spaltproduktes R-NH2 in Nanomol (Humanthrombin)” value on Humanthrombin is on record as 2,8 Nanomol. For the same compound, at Humanplasmin, the “Menge des durch 1 CU-Einheit Humanplasmin pro Min. freigesetzten Spaltproduktes R-NH2 in Nanomol (Humanplasmin)” value is reported as 623 Nanomol.
As to `N=C(N)NCCC[C@H](NC(=O)[C@H](Cc1ccc(O)cc1)NC(=O)[C@H](N)C1CCCCC1)C(=O)Nc1ccc([N+](=O)[O-])cc1` [Beispiel 42, 2HBr.H-D-CHG-Tyr-Arg-pNA] (H-[dChg]-Tyr-Arg-pNA), the “Menge des durch 1 ml Humanurin pro Min. freigesetzten Spaltproduktes R-NH2 in Nanomol (Urinkallikrein)” value on Urinkallikrein is 0,49 Nanomol. Further, the “Menge des durch 1 ml Humansputum pro Min. freigesetzten Spaltproduktes R-NH2 in Nanomol (Submandibularis-Kallikrein)” value in assay [1] was 3,9 Nanomol. In addition, the “Menge des durch 1 NIH-Einheit Thrombin pro Min. freigesetzten Spaltproduktes R-NH2 in Nanomol (Humanthrombin)” value at Humanthrombin was 2,0 Nanomol. In addition, the “Menge des durch 1 CU-Einheit Humanplasmin pro Min. freigesetzten Spaltproduktes R-NH2 in Nanomol (Humanplasmin)” value on Humanplasmin came to 969 Nanomol.
With `N=C(N)NCCC[C@H](NC(=O)[C@H](Cc1ccc(O)cc1)NC(=O)[C@H](N)CC1CCCCC1)C(=O)Nc1ccc([N+](=O)[O-])cc1` [Beispiel 43, 2HBr.H-D-CHA-Tyr-Arg-pNA] (H-[dCha]-Tyr-Arg-pNA), at Urinkallikrein, the “Menge des durch 1 ml Humanurin pro Min. freigesetzten Spaltproduktes R-NH2 in Nanomol (Urinkallikrein)” value was 0,49 Nanomol. Besides, the “Menge des durch 1 ml Humansputum pro Min. freigesetzten Spaltproduktes R-NH2 in Nanomol (Submandibularis-Kallikrein)” value in assay [1] is 5,2 Nanomol. Further, the “Menge des durch 1 NIH-Einheit Thrombin pro Min. freigesetzten Spaltproduktes R-NH2 in Nanomol (Humanthrombin)” value on Humanthrombin is recorded as 8,3 Nanomol. Besides, the “Menge des durch 1 CU-Einheit Humanplasmin pro Min. freigesetzten Spaltproduktes R-NH2 in Nanomol (Humanplasmin)” value on Humanplasmin is reported as 1407 Nanomol.
The matching figures for `CCC[C@@H](N)C(=O)N[C@@H](Cc1ccc(O)cc1)C(=O)N[C@@H](CCCNC(=N)N)C(=O)Nc1ccc([N+](=O)[O-])cc1` [Beispiel 44, 2HBr.H-D-Nval-Tyr-Arg-pNA] (H-[dNva]-Tyr-Arg-pNA): 0,42 Nanomol, 4,9 Nanomol, 1,8 Nanomol and 1219 Nanomol.
Take `N=C(N)NCCC[C@H](NC(=O)[C@H](Cc1ccc(O)cc1)NC(=O)[C@H](N)Cc1ccccc1)C(=O)Nc1ccc([N+](=O)[O-])cc1` [Beispiel 46, 2HBr.H-D-Phe-Tyr-Arg-pNA] (H-[dF]-Tyr-Arg-pNA): the “Menge des durch 1 ml Humanurin pro Min. freigesetzten Spaltproduktes R-NH2 in Nanomol (Urinkallikrein)” value on Urinkallikrein is given as 0,26 Nanomol. The “Menge des durch 1 ml Humansputum pro Min. freigesetzten Spaltproduktes R-NH2 in Nanomol (Submandibularis-Kallikrein)” value in assay [1] was 6,1 Nanomol. For the same compound, the “Menge des durch 1 NIH-Einheit Thrombin pro Min. freigesetzten Spaltproduktes R-NH2 in Nanomol (Humanthrombin)” value on Humanthrombin is given as 2,6 Nanomol. Further, the “Menge des durch 1 CU-Einheit Humanplasmin pro Min. freigesetzten Spaltproduktes R-NH2 in Nanomol (Humanplasmin)” value on Humanplasmin came to 843 Nanomol.
As to `N=C(N)NCCC[C@H](NC(=O)[C@H](Cc1ccc(O)cc1)NC(=O)[C@H](N)c1ccccc1)C(=O)Nc1ccc([N+](=O)[O-])cc1` [Beispiel 47, 2HBr.H-D-Ph'Gly-Tyr-Arg-pNA] (H-[dPhg]-Tyr-Arg-pNA), at Urinkallikrein, the “Menge des durch 1 ml Humanurin pro Min. freigesetzten Spaltproduktes R-NH2 in Nanomol (Urinkallikrein)” value was 0,19 Nanomol. Further, the “Menge des durch 1 ml Humansputum pro Min. freigesetzten Spaltproduktes R-NH2 in Nanomol (Submandibularis-Kallikrein)” value in assay [1] is 7,0 Nanomol. At Humanthrombin, the “Menge des durch 1 NIH-Einheit Thrombin pro Min. freigesetzten Spaltproduktes R-NH2 in Nanomol (Humanthrombin)” value is 1,0 Nanomol. In addition, the “Menge des durch 1 CU-Einheit Humanplasmin pro Min. freigesetzten Spaltproduktes R-NH2 in Nanomol (Humanplasmin)” value at Humanplasmin is recorded as 818 Nanomol.
`C[C@H](NC(=O)[C@H](N)C1CCCCC1)C(=O)N[C@@H](CCCNC(=N)N)C(=O)Nc1ccc([N+](=O)[O-])cc1` [Beispiel 48, 2HBr.H-D-CHG-Ala-Arg-pNA] (H-[dChg]-Ala-Arg-pNA): the “Menge des durch 1 ml Humanurin pro Min. freigesetzten Spaltproduktes R-NH2 in Nanomol (Urinkallikrein)” value on Urinkallikrein was 0,72 Nanomol. In addition, in assay [1], the “Menge des durch 1 ml Humansputum pro Min. freigesetzten Spaltproduktes R-NH2 in Nanomol (Submandibularis-Kallikrein)” value is 9,5 Nanomol. For the same compound, on Humanthrombin, the “Menge des durch 1 NIH-Einheit Thrombin pro Min. freigesetzten Spaltproduktes R-NH2 in Nanomol (Humanthrombin)” value amounted to 158 Nanomol. Further, on Humanplasmin, the “Menge des durch 1 CU-Einheit Humanplasmin pro Min. freigesetzten Spaltproduktes R-NH2 in Nanomol (Humanplasmin)” value came out at 239 Nanomol.
As to `C[C@H](NC(=O)[C@H](N)CC1CCCCC1)C(=O)N[C@@H](CCCNC(=N)N)C(=O)Nc1ccc([N+](=O)[O-])cc1` [Beispiel 49, 2HBr.H-D-CHA-Ala-Arg-pNA] (H-[dCha]-Ala-Arg-pNA), the “Menge des durch 1 ml Humanurin pro Min. freigesetzten Spaltproduktes R-NH2 in Nanomol (Urinkallikrein)” value at Urinkallikrein is 0,66 Nanomol. Also, the “Menge des durch 1 ml Humansputum pro Min. freigesetzten Spaltproduktes R-NH2 in Nanomol (Submandibularis-Kallikrein)” value in assay [1] is listed as 10,6 Nanomol. The “Menge des durch 1 NIH-Einheit Thrombin pro Min. freigesetzten Spaltproduktes R-NH2 in Nanomol (Humanthrombin)” value on Humanthrombin was 163,5 Nanomol. Besides, the “Menge des durch 1 CU-Einheit Humanplasmin pro Min. freigesetzten Spaltproduktes R-NH2 in Nanomol (Humanplasmin)” value on Humanplasmin is 389 Nanomol.
The corresponding values for `CC(C)C[C@H](NC(=O)[C@H](N)Cc1ccccc1)C(=O)N[C@@H](CCCNC(=N)N)C(=O)Nc1ccc([N+](=O)[O-])cc1` [Beispiel 50, 2HBr.H-D-Phe-Leu-Arg-pNA] (H-[dF]-Leu-Arg-pNA) are 0,61 Nanomol, 6,8 Nanomol, 14,4 Nanomol and 313 Nanomol.
For `CC(C)C[C@H](NC(=O)[C@H](N)CC1CCC(O)CC1)C(=O)N[C@@H](CCCNC(=N)N)C(=O)Nc1ccc([N+](=O)[O-])cc1` (stereo partly drawn) [Beispiel 51, 2HBr.H-D-CHT-Leu-Arg-pNA], the “Menge des durch 1 ml Humanurin pro Min. freigesetzten Spaltproduktes R-NH2 in Nanomol (Urinkallikrein)” value at Urinkallikrein is given as 0,33 Nanomol. Further, in assay [1], the “Menge des durch 1 ml Humansputum pro Min. freigesetzten Spaltproduktes R-NH2 in Nanomol (Submandibularis-Kallikrein)” value is 11,7 Nanomol. Moreover, the “Menge des durch 1 NIH-Einheit Thrombin pro Min. freigesetzten Spaltproduktes R-NH2 in Nanomol (Humanthrombin)” value on Humanthrombin is recorded as 58,1 Nanomol. In addition, the “Menge des durch 1 CU-Einheit Humanplasmin pro Min. freigesetzten Spaltproduktes R-NH2 in Nanomol (Humanplasmin)” value on Humanplasmin was 596 Nanomol.
The corresponding values for `CC(C)C[C@H](NC(=O)[C@H](N)CC1CCCCC1)C(=O)N[C@@H](CCCNC(=N)N)C(=O)Nc1ccc([N+](=O)[O-])cc1` [Beispiel 52, 2HBr.H-D-CHA-Leu-Arg-pNA] (H-[dCha]-Leu-Arg-pNA) are 0,64 Nanomol, 8,8 Nanomol, 57,6 Nanomol and 555 Nanomol.
The corresponding values for `CC(C)C[C@@H](N)C(=O)N[C@H](C(=O)N[C@@H](CCCNC(=N)N)C(=O)Nc1ccc([N+](=O)[O-])cc1)c1ccccc1` [Beispiel 53, 2HBr.H-D-Leu-Ph'Gly-Arg-pNA] (H-[dL]-[Phg]-Arg-pNA) are 0,67 Nanomol, 25,8 Nanomol, 27,4 Nanomol and 422 Nanomol.
The corresponding values for `CCC[C@@H](N)C(=O)N[C@H](C(=O)N[C@@H](CCCNC(=N)N)C(=O)Nc1ccc([N+](=O)[O-])cc1)c1ccccc1` [Beispiel 54, 2HBr.H-D-Nval-Ph'Gly-Arg-pNA] (H-[dNva]-[Phg]-Arg-pNA) are 0,58 Nanomol, 22,9 Nanomol, 19,2 Nanomol and 382 Nanomol.
